Experimental data taken from patent US20160287563A1, “Cysteine Prodrugs” (Promentis Pharmaceuticals, Inc., priority 2011, published 2016).

Key:
MAM-treated rats = assay: Attentional Set Shifting in MAM-treated rats; format: in vivo
Excerpt: (§1) This approach would have the added benefit of allowing assessing the impact of the compounds on cognitive changes that are thought to be relevant to schizophrenia. Thus, one would be able to test the hypothesis that the conditions that normalize glutathione are also conditions that are expected to improve cognitive performance.
Seven days prior to testing the animals will be food deprived to 85% of their free-feeding weight. Rats will be trained and tested on a four-arm cross maze (60×20×12 inches), constructed from Plexiglas with a removable arm to form a “T” configuration. On the first habituation day, the rat will be allowed to explore and consume up to 20 sugar pellets for 15 minutes. On the second day, the maze will be baited with 12 pellets for 15 minutes. On subsequent days, only one pellet will be placed at the end of each arm. This procedure will be continued daily until the rat consumes 16 sugar pellets in 15 minutes. Once achieved, the turn bias will be determined by forming a “T” configuration with the removable arm. A black-and-white piece of laminated paper for a visual cue will be placed on the floor in one of the arms. One pellet will be placed in each food well of the “T” arms. The rat will then be placed in the stem arm and allowed to choose between the two arms. […]

cultured cells = assay: Glutathione levels in cultured cells exposed to oxidative stress agents; format: cell-based; conditions: iron 0-120 min exposure to 0-100 microM; ethacrynic acid 0-30 min exposure to 0-10 microM
Excerpt: First, the experiment described in part 1A is repeated, except the harvested tissue is exposed to agents that induce oxidative stress which would prompt the cells to use/increase the synthesis of glutathione (the details are provided below).

[1] = Tissue glutathione in the MAM neurodevelopmental model of schizophrenia; format: in vivo; conditions: rats in the MAM neurodevelopmental model (MAM 22 mg/kg IP on gestational day 17)
Protocol: as §1
Timed pregnant Sprauge-Dawley rats are given an acute injection of methylazoxymethanol (MAM; 22 mg/kg, IP) or vehicle on gestational day 17. Following vaginal birth, all mothers and offspring are left undisturbed until weaning on postnatal day 22.

SMILES	tissue levels of glutathione in cultured cells (cultured cells)	other results
CC(=O)N[C@@H](CS)C(=O)O [NAC, N-acetyl cysteine]	–	Attentional Set Shifting deficit (MAM-treated rats): can be restored
C=C(CC)C(=O)c1ccc(OCC(=O)O)c(Cl)c1Cl [ethacrynic acid]	decrease tissue levels of glutathione	–
[Fe] [iron]	decrease tissue levels of glutathione	–
C[N+]([O-])=NCO [MAM, methylazoxymethanol]	–	tissue levels of glutathione [1]: modest reduction in tissue levels of glutathione
